Data as given in article PMC9247573 (Frontiers in Microbiology, 2022).
Where a chain is given by its changes, count along the chain named.

T1: EcPsuK (Escherichia coli, UniProt Z9FTQ0OEG4)
T1 construct: N-terminal His6-SUMO removed with Ulp1; host E. coli BL21(DE3)
T1 sequence (Z9FTQ0OEG4 1-313): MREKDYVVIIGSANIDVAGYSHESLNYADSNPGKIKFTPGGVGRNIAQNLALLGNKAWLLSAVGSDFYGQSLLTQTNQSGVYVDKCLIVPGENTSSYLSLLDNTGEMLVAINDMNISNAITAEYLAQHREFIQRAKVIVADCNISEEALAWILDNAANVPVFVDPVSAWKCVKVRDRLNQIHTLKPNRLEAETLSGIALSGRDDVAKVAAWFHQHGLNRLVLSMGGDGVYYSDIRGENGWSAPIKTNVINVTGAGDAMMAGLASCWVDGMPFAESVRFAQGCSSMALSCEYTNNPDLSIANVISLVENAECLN

B1: Escherichia coli pseudouridine kinase PsuK (enzyme, E. coli BL21 (DE3), UniProt P30235 1-313, looked up)
chain: T1 sequence (Z9FTQ0OEG4 1-313) with R129G, D203E, R235S, N238S
notes: E. coli pseudouridine kinase PsuK (YeiC), amplified from the E. coli BL21 (DE3) genome, Uniprot ID A0A140N873, aa 1-313 (313 residues, calculated 33.6 kDa); modelled from Arg2 to Asn308 in the apo structure; Cloned by BamHI and XhoI into a modified pET-28a with an Ulp1 cleavage site; also called EcPsuK; YeiC; source: E. coli BL21 (DE3), purified (Ni-NTA, Ulp1 cleavage, second Ni-NTA, Superdex …)

How the values were obtained:
EcPsuK = molecular target: T1, EcPsuK; experiment: X-ray crystallography, […] Å; type: binding; settings: co-crystallised with ADP and Ψ, soaked with 1 mM Ψ and 4 mM ADP, MgCl2, pH 7.0, NaCl-purified protein; ADP not seen; nucleoside site; turnover also measured with ATP
[1] = molecular target: the molecule itself; experiment: SEC; HiLoad 16/60 Superdex 200-pg, 10 mM Tris-HCl pH 8.0, 100 mM NaCl or 100 mM KCl; molecular weight of the purified protein against the calculated monomer

Molecule	X-ray crystallography, 2.30 Å (EcPsuK)	stoichiometry N [1]
O=c1[nH]cc([C@@H]2O[C@H](CO)[C@@H](O)[C@H]2O)c(=O)[nH]1 [pseudouridine]	we determined the crystal structure of EcPsuK complexed with pseudouridine through co-crystallization	
B1		2
